Test results taken from ChEMBL document CHEMBL4480423, “Mindapyrroles A-C, Pyoluteorin Analogues from a Shipworm-Associated Bacterium” (J Nat Prod, 2019).
pIC50: −log10 of the molar value. In brackets after ≈: the same amount, converted by molar mass.

What was measured:
Staphylococcus aureus [1] = experiment: Antibacterial activity against Staphylococcus aureus ATCC 6538 after 24 hrs by resazurin dye based fluorescence assay; assay type: functional; conditions: ATCC 6538, 24 h
Staphylococcus aureus [2] = experiment: Antibacterial activity against methicillin-resistant Staphylococcus aureus ATCC 43300 after 24 hrs by resazurin dye based fluorescence assay; assay type: functional; conditions: ATCC 43300, 24 h
Bacillus subtilis = experiment: Antibacterial activity against Bacillus subtilis ATCC 6051 after 24 hrs by resazurin dye based fluorescence assay; assay type: functional; conditions: ATCC 6051, 24 h
[3] = tested on: Staphylococcus epidermidis; experiment: Antibacterial activity against Staphylococcus epidermidis ATCC 35984 after 24 hrs by resazurin dye based fluorescence assay; assay type: functional; conditions: ATCC 35984, 24 h
Pseudomonas aeruginosa = experiment: Antibacterial activity against Pseudomonas aeruginosa ATCC 15442 after 24 hrs by resazurin dye based fluorescence assay; assay type: functional; conditions: ATCC 15442, 24 h
Enterococcus faecium = experiment: Antibacterial activity against Enterococcus faecium ATCC […] after 24 hrs by resazurin dye based fluorescence assay; assay type: functional
MDCK = experiment: Cytotoxicity against MDCK cells assessed as reduction in cell viability after 72 hrs by MTT assay; assay type: cell-based; conditions: Canis lupus familiaris

Compound	MIC (Staphylococcus aureus [1]) [µg/mL]	MIC (Staphylococcus aureus [2]) [µg/mL]	MIC (Bacillus subtilis) [µg/mL]	MIC [3] [µg/mL]	MIC (Pseudomonas aeruginosa) [µg/mL]	MIC (Enterococcus faecium) [µg/mL]	pIC50 (MDCK)
O=C(c1cc(Cl)c(Cl)[nH]1)c1c(O)ccc(Cc2ccc(O)c(C(=O)c3cc(Cl)c(Cl)[nH]3)c2O)c1O	32 (≈ 57.5 µM)	> 32	32 (≈ 57.5 µM)	32 (≈ 57.5 µM)	> 32	32 (≈ 57.5 µM)	4.36
O=C(c1cc(Cl)c(Cl)[nH]1)c1c(O)ccc(Cc2cc(C(c3csc(-c4ccccc4O)n3)c3ccc(O)c(C(=O)c4cc(Cl)c(Cl)[nH]4)c3O)c(O)c(C(=O)c3cc(Cl)c(Cl)[nH]3)c2O)c1O (stereo not given)	4 (≈ 3.94 µM)	8 (≈ 7.88 µM)	8 (≈ 7.88 µM)	2 (≈ 1.97 µM)	> 32	> 32	4.55
O=C(c1cc(Cl)c(Cl)[nH]1)c1c(O)ccc(C(c2csc(-c3ccccc3O)n2)c2ccc(O)c(C(=O)c3cc(Cl)c(Cl)[nH]3)c2O)c1O	4 (≈ 5.47 µM)	4 (≈ 5.47 µM)	4 (≈ 5.47 µM)	2 (≈ 2.73 µM)	8 (≈ 10.9 µM)	8 (≈ 10.9 µM)	4.04
O=C(N[C@H](CO)[C@H](O)c1ccc([N+](=O)[O-])cc1)C(Cl)Cl [CHLORAMPHENICOL]	–	–	–	–	–	8 (≈ 24.8 µM)	–
CCn1cc(C(=O)O)c(=O)c2ccc(C)nc21 [NALIDIXIC ACID]	–	–	–	–	4 (≈ 17.2 µM)	–	–
Cc1onc(-c2ccccc2)c1C(=O)N[C@@H]1C(=O)N2[C@@H]1SC(C)(C)[C@@H]2C(=O)O [OXACILLIN]	0.13 (≈ 0.324 µM)	8 (≈ 19.9 µM)	1 (≈ 2.49 µM)	2 (≈ 4.98 µM)	–	> 32	–
O=C(c1cc(Cl)c(Cl)[nH]1)c1c(O)cccc1O [PYOLUTEORIN]	4 (≈ 14.7 µM)	8 (≈ 29.4 µM)	8 (≈ 29.4 µM)	4 (≈ 14.7 µM)	16 (≈ 58.8 µM)	8 (≈ 29.4 µM)	5.32
